The assay has as its target Mitogen-activated protein kinase kinase kinase 14 (Homo sapiens, UniProt Q99558). The assay can be described thus: Inhibition of auto-phosphorylation of recombinant human NF-kappaB-inducing kinase (NIK/MAP3K14) activity: NIK/MAP3K14 auto-phosphorylation activity was measured using the AlphaScreen® (αscreen) format (Perkin Elmer). All compounds tested were dissolved in dimethyl sulfoxide (DMSO) and further dilutions were made in assay buffer. Final DMSO concentration was 1% (v/v) in assays. Assay buffer was 50 mM Tris pH 7.5 containing 1 mM EGTA (ethylene glycol tetraacetic acid), 1 mM DTT (dithiothreitol), 0.1 mM Na3VO4, 5 mM MgCl2, 0.01% Tween® 20. Assays were carried out in 384 well Alphaplates (Perkin Elmer). Incubations consisted of compound, 25 microM Adenosine-5′-triphosphate (ATP), and 0.2 nM NIK/MAP3K14. Incubations were initiated by addition of GST-tagged NIK/MAP3K14 enzyme, carried out for 1 h at 25° C. and terminated by addition of stop buffer containing anti-phospho-IKK Ser176/180 antibody. Protein A Acceptor and Glutathione-Donor beads were added before reading using an EnVision® Multilabel Plate Reader (Perkin Elmer). Signal obtained in the wells containing blank samples was subtracted from all other wells and IC50's were determined by fitting a sigmoidal curve to % inhibition of control versus Log10 compound concentration.
Chain of Mitogen-activated protein kinase kinase kinase 14 (Q99558 whole entry): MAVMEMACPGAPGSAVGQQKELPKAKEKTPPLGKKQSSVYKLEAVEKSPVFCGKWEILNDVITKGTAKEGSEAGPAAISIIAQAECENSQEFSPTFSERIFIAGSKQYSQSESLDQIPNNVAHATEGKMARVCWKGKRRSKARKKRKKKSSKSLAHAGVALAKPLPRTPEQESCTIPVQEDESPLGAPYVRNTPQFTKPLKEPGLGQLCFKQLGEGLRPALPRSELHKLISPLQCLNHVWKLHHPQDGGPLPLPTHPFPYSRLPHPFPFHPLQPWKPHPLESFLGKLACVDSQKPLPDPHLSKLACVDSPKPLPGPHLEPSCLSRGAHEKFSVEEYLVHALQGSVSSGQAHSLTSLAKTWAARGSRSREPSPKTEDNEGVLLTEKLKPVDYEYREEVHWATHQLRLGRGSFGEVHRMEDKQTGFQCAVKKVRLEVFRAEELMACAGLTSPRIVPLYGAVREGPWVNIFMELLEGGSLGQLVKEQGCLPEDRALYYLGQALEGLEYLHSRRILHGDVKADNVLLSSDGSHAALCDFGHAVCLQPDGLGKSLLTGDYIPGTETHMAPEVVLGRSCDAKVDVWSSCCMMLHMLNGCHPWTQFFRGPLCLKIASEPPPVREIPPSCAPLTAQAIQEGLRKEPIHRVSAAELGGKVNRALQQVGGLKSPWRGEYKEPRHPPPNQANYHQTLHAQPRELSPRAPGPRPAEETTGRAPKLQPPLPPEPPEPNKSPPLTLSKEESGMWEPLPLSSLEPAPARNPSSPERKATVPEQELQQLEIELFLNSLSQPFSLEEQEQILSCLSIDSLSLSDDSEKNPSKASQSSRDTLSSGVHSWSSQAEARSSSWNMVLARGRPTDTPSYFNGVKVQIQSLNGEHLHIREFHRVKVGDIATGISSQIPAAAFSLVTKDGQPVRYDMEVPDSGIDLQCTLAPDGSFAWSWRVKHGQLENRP
Take `COCCCn1nc(C)cc1Nc1nccc(-c2cc(C#N)c3c(c2)[C@@](C)(CO)CN3)n1`: the IC50 was 4 nM.
In the case of `Cc1cc(Nc2nccc(-c3cc(C#N)c4c(c3)C(C)(CO)CN4)n2)n(CCN(C)C)n1` (stereo not drawn) it was 21 nM; in that of `Cc1nn(C)cc1Nc1nccc(-c2cc(C#N)c3c(c2)C(C)(CO)CN3)n1` (stereo not drawn), 3.2 nM.
